The source of these data is patent publication US8652804B2, “Transcription factor-based biosensors for detecting dicarboxylic acids” (priority 2011, dated 2014).

Each structure is given as a SMILES string.

Assay [1] addresses PcaR transcription factor (Pseudomonas putida, UniProt Q52154). As to conditions: for biosensor response (OD600 increase / tetracycline resistance) in words: plasmids S3/S2, 25 μg/ml tetracycline, 12 hours growth; for linear response range: plasmids S3/S2, E. coli K12, tetracycline medium, 12 hours, exogenously added dicarboxylic acid; for dynamic range (maximum difference in OD600 between fully induced samples and samples without dicarboxylic acid), ranking in words: plasmids S3/S2, compared among the four dicarboxylic acids.
Procedure: The X-axis is the concentration of exogenous dicarboxylic acid supplemented to the growth medium; the Y-axis is the cell culture density (OD600) after 12 hours growth in medium supplemented with 25 μg/ml tetracycline. E. coli strain “PcaR (+)” comprises plasmids S3/S2 and produces the tetracycline resistance protein upon exogenous addition of dicarboxylic acids. E. coli strain “PcaR (−)” comprises plasmids S1/S2 and produces a negative control protein, PcaI, upon exogenous addition of the indicated dicarboxylic acids.
Three plasmids were used to characterize biosensor response to exogenously added butanedioic acid, pentanedioic acid, hexanedioic acid and heptanedioic acid. The constructed plasmids employ the beta-keto hexanedioic acid and hexanedioic responsive transcription factor, PcaR, and the PcaR-responsive promoters, PPcaR (SEQ ID NO: 16) and PPcaIJ (SEQ ID NO:17), from Pseudomonas putida. Plasmid 51 harbors the P. putida gene pcaI under transcriptional control of it native PPcaIJ promoter on an E. coli vector backbone with ampicillin resistance marker and ColE1 origin of replication. Plasmid S3 harbors the tetA tetracycline resistance gene under control of the PcaIJ promoter on an E. coli vector backbone with ampicillin resistance marker and ColE1 origin of replication. Plasmid S2 harbors the pcaR transcription factor gene under control of its native PPcaR promoter on an E. coli vector backbone comprising a chloramphenicol resistance marker and pSC101 origin of replication.
E. coli strain K12 was co-transformed with either plasmids S1/S2 or S3/S2 and individual colonies isolated from LB agar plates (Cb^50, Cm^50). Colonies were grown in 25 ml LB broth (Cb^50, Cm^50) until reaching an optical density at 600 nm (OD600) of approximately 0.50, at which point cell stocks were prepared and stored at −80° C.; cell stocks were comprised of 0.5 ml cell culture and 0.5 ml of a 50% v/v glycerol solution.
Biosensor experiments were performed with butanedioic acid, pentanedioic acid, hexanedioic acid, and heptanedioic acid. An aliquot of biosensor cell stock was thawed and used to inoculate 50 ml of LB medium (Cb^50, Cm^50) in a 250 ml, baffled Erlenmeyer flask. Cultures were incubated for 2 hours at 37° C.; subsequently, 0.6 ml biosensor culture was added to 48-well plates prepared with 2.3 ml LB medium (Cb^50, Cm^50) supplemented with tetracycline and dicarboxylic acid at the desired concentration (n=4). Plates were than grown at 30° C. on an orbital titer plate shaker (Lab Line Instruments). Following 12 hours incubation, 200 μl samples were taken for OD600 measurement (Tecan Ultra).

Assay [2] deals with E. coli DcuS-DcuR two-component system. The conditions noted are these: plasmid S4 (PDctA-tetA), E. coli K12, 25 μg/ml tetracycline, 12 hours, exogenously added acid.
Procedure: This example describes a dicarboxylic acid-responsive two-component system of the invention comprised of the E. coli DcuS-DcuR proteins expressed in a wild type E. coli K12 host.
(§1) E. coli strain K12 was transformed with plasmids S4, S5, or S6 and individual colonies isolated from LB agar plates (Cb^50). Colonies were grown in 25 ml LB broth (Cb^50) until reaching an optical density at 600 nm (OD600) of approximately 0.50, at which point cell stocks were prepared and stored at −80° C.; cell stocks comprised 0.5 ml cell culture and 0.5 ml of 50% v/v glycerol in water.
(§2) Biosensor experiments were performed with butanedioic acid. An aliquot of biosensor cell stock was thawed and used to inoculate 50 ml of LB medium (Cb^50) in a 250 ml, baffled Erlenmeyer flask. […] Plates were grown at 30° C. on an orbital titer plate shaker (Lab Line Instruments). Following 12 hours incubation, 200 μl samples were taken for OD600 measurement (Tecan Ultra).
The test system is the same in assay [3]. The conditions noted are these: plasmids S5 (PDcuB#21) or S6 (PDcuB#22), 25 μg/ml tetracycline.
Procedure: as §1, §2

Sequence of PcaR transcription factor (Q52154 whole entry L6P/V7A/D9E/P10S/V11A/P15S/S20A/A21P/M23L/S96T/G197D/H210N/P212A): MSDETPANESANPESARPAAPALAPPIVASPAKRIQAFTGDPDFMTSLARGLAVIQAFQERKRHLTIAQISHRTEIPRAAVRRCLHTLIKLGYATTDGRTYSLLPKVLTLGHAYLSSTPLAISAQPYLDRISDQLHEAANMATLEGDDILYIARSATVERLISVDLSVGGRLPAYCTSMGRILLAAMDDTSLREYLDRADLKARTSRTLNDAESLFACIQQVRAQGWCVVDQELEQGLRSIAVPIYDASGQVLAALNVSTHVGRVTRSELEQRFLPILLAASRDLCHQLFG

As to `O=C(O)CCCC(=O)O` [pentanedioic acid], in assay [1], the “biosensor response (OD600 increase / tetracycline resistance) in words” value is reported as “dicarboxylic acid-dependent increases in tetracycline resistance” and the linear response range lay in the range of 1 to 2.5 mM.
`O=C(O)CCC(=O)O` [butanedioic acid]: in assay [2], the “dynamic range of biosensor response” value is on record as “over 1.2 OD600 units”. In assay [1], the “biosensor response (OD600 increase / tetracycline resistance) in words” value is given as “dicarboxylic acid-dependent increases in tetracycline resistance” and the linear response range fell in the range of 1.5 to 4 mM. Moreover, in assay [3], the “growth of biosensor cultures versus acid concentration, in words” value was “grew under all butanedioic acid concentrations tested”.
As for `O=C(O)CCCCCC(=O)O` [heptanedioic acid], in assay [1], the “biosensor response (OD600 increase / tetracycline resistance) in words” value is “dicarboxylic acid-dependent increases in tetracycline resistance”; the linear response range was 0.5 to 6 mM; the “dynamic range (maximum difference in OD600 between fully induced samples and samples without dicarboxylic acid), ranking in words” value was “highest dynamic range”.
With `O=C(O)CCCCC(=O)O` [hexanedioic acid], in assay [1], the “biosensor response (OD600 increase / tetracycline resistance) in words” value is “dicarboxylic acid-dependent increases in tetracycline resistance”; the linear response range is 0.25 to 6 mM; the “dynamic range (maximum difference in OD600 between fully induced samples and samples without dicarboxylic acid), ranking in words” value was “highest dynamic range”.
